Measurements: the NIST ThermoML archive (doi:10.1016/j.fluid.2017.06.018)
Several values for one entry are separate records, joined by “and”; a condition that tells them apart may be missing. Equal values may be shown once. ± gives the expanded uncertainty stated by the source.

How the values were obtained:
[1] = 100 kPa, Liquid; for viscosity: Falling or rolling sphere viscometry; for mass density: Vibrating tube method
[2] = refractive index (Na D-line) (dimensionless); conditions: 100 kPa, Liquid, Standard Abbe refractometry
[3] = xn = mol fraction of the nth substance listed; conditions: 100 kPa, Liquid, x1 = 1; for viscosity: Falling or rolling sphere viscometry; for mass density: Vibrating tube method
[4] = refractive index (Na D-line) (dimensionless); xn = mol fraction of the nth substance listed; conditions: 100 kPa, Liquid, Standard Abbe refractometry, x1 = 1

Structure (SMILES)	viscosity ([1]; 298.15 K) [mPa·s]	mass density ([1]; 298.15 K) [kg/m3]	viscosity ([1]; 303.15 K) [mPa·s]	mass density ([1]; 303.15 K) [kg/m3]	viscosity ([1]; 308.15 K)	mass density ([1]; 308.15 K) [kg/m3]	refractive index ([2]; 298.15 K)	refractive index ([2]; 303.15 K)	refractive index ([2]; 308.15 K)	viscosity ([3]; 298.15 K) [mPa·s]	mass density ([3]; 298.15 K) [kg/m3]	viscosity ([3]; 303.15 K) [mPa·s]	mass density ([3]; 303.15 K) [kg/m3]	viscosity ([3]; 308.15 K) [mPa·s]	mass density ([3]; 308.15 K) [kg/m3]	refractive index ([4]; 298.15 K)	refractive index ([4]; 303.15 K)	refractive index ([4]; 308.15 K)
NCCNCCO [N-(2-aminoethyl)ethanolamine]	98.62 ± 2.9	1025.8 ± 2	70.57 ± 1.6	1021.3 ± 2	53.11 ± 1.1 mPa·s	1016.3 ± 2	1.4843 ± 0.002	1.4827 ± 0.002	1.4811 ± 0.002	–	–	–	–	–	–	–	–	–
NCCO [2-aminoethan-1-ol] + NCCNCCO	–	–	–	–	–	–	–	–	–	18.72 ± 0.44	1012.4 ± 2.2	15.15 ± 0.36	1008.4 ± 2.1	11.96 ± 0.28	1004.5 ± 2.1	1.4535 ± 0.0021	1.4519 ± 0.0021	1.4505 ± 0.0021
NCCO [2-aminoethan-1-ol] + NCCNCCN	–	–	–	–	–	–	–	–	–	18.72 ± 0.44	1012.4 ± 2.2	15.15 ± 0.36	1008.4 ± 2.1	11.9 ± 0.28	1004.5 ± 2.1	1.4535 ± 0.0021	1.4519 ± 0.0021	1.4505 ± 0.0021
NCCO [2-aminoethan-1-ol]	18.72 ± 0.44	1012.4 ± 2.2	15.15 ± 0.36	1008.4 ± 2.1	11.9 ± 0.28 mPa·s and 11.96 ± 0.28 mPa·s	1004.5 ± 2.1	1.4535 ± 0.0021	1.4519 ± 0.0021	1.4505 ± 0.0021	–	–	–	–	–	–	–	–	–
NCCNCCN [di(2-aminoethyl)amine]	5.63 ± 0.13	945.8 ± 2.1	4.5 ± 0.11	942.1 ± 2.1	3.85 ± 0.09 mPa·s	937.8 ± 2.1	1.4822 ± 0.0021	1.4808 ± 0.0021	1.4793 ± 0.0021	–	–	–	–	–	–	–	–	–
